Experimental data: patent US5480902A, “Thienylpyrrole fungicidal agents” (American Cyanamid Company, priority 1993, dated 1996)
Like-named read-outs stand apart in the source and are kept apart here.

Experiments:
[1] = system: Pythium ultimum; assay: In vitro fungicidal activity, growth inhibition of ground fungal mycelia (PYTHUL); type: cell-based; conditions: Globisporangium ultimum, 3-4 days at 21° C., averaged when more than one test, read-out: Growth inhibition rating, PYTHUL (converted)
Description: (§1) Test compounds are dissolved or suspended in acetone and dispersed into cell well plates containing a suspension of ground fungal mycelia in a nutrient broth. Assay plates are incubated for 3-4 days at 21° C. Growth inhibition is measured visually and is rated using the following scale:
(§2) Assay fungi include the plant pathogens, Pythium ultimum (Pythul); Rhizoctonia solani (Rhizso); Fusarium oxysporum f. sp. cucumerinum (Fusoxc); and Pseudocercosporella herpotrichoides (Psdche).
(§3) When more than one test is run, the data are averaged.

[2] = system: Rhizoctonia solani; assay: In vitro fungicidal activity, growth inhibition of ground fungal mycelia (RHIZSO); type: cell-based; conditions: 3-4 days at 21° C., averaged when more than one test, read-out: Growth inhibition rating, RHIZSO
Description: as §1, §2, §3

[3] = system: Pseudocercosporella herpotrichoides; assay: In vitro fungicidal activity, growth inhibition of ground fungal mycelia (PSDCHE); type: cell-based; conditions: Oculimacula yallundae, 3-4 days at 21° C., averaged when more than one test, read-out: Growth inhibition rating, PSDCHE (converted)
Description: as §1, §2, §3

[4] = system: Fusarium oxysporum f. sp. cucumerinum; assay: In vitro fungicidal activity, growth inhibition of ground fungal mycelia (FUSOXC); type: cell-based; conditions: 25 ppm, 3-4 days at 21° C., averaged when more than one test, read-out: Growth inhibition rating, FUSOXC
Description: as §1, §2, §3

[5] = system: Venturia inaegualis; assay: In vivo fungicidal activity on host plants, Apple Scab (AS); conditions: sprayed on host plants before inoculation
[6] = system: Cercospora beticola; assay: In vivo fungicidal activity on host plants, Sugar Beet Cercospora (SBC); conditions: sprayed on host plants before inoculation; further: ranges in brackets are in %
[7] = system: Botrytis cinerea; assay: In vivo fungicidal activity on host plants, Pepper Botrytis (PB); conditions: sprayed on host plants before inoculation
[8] = system: Pyricularia oryzae; type: in vivo; conditions: sprayed on host plants before inoculation
[9] = system: Plasmopara viticola; assay: In vivo fungicidal activity on host plants, Grape Downy Mildew (GDM); conditions: sprayed on host plants before inoculation
[10] = system: Erysiphe graminis f. sp. tritici; assay: In vivo fungicidal activity on host plants, Wheat Powdery Mildew (WPM); conditions: sprayed on host plants before inoculation
[11] = system: Puccinia recondita f. sp. tritici; assay: In vivo fungicidal activity on host plants, Wheat Leaf Rust (WLR); conditions: 400 ppm; sprayed on host plants before inoculation

Work on `N#Cc1c(-c2cc(Br)c(Br)s2)[nH]c(C(F)(F)F)c1Br` [Compound 21, 4-Bromo-2-(4,5-dibromo-2-thienyl)-5-(trifluoromethyl)pyrrole-3-carbonitrile] yielded an inhibition at 25 ppm [1] of 0%, an inhibition at 25 ppm [2] of 0% and an inhibition at 25 ppm [3] of 0%. For the same molecule, the inhibition at 25 ppm [4] was 0%.

For `N#Cc1c(-c2cccs2)[nH]c(C(F)(F)F)c1Cl` [Compound 12, 4-Chloro-2-(2-thienyl)-5-(trifluoromethyl)pyrrole-3-carbonitrile], the “Disease control rating, AS” value ([5]; 200 ppm) was 4 (45-59), the “Disease control rating, SBC” value ([6]; 200 ppm) was 0 (0) and the inhibition at 25 ppm [1] was 90 to 99%. The “Disease control rating, PB” value ([7]; 200 ppm) was 0 (0), the “Disease control rating, RB” value ([8]; 200 ppm) was 0 (0) and the inhibition at 25 ppm [2] was 90 to 99%. For the same molecule, the “Disease control rating, GDM” value ([9]; 200 ppm) was 8 (96-99), the inhibition at 25 ppm [3] was 0% and the “Disease control rating, WPM” value ([10]; 200 ppm) was 8 (96-99). It also gave an inhibition at 25 ppm [4] of 0%.

For `N#Cc1cc(C(F)(F)F)[nH]c1-c1ccco1` [Compound 11, 2-(2-Furyl)-5-(trifluoromethyl)pyrrole-3-carbonitrile], the “Disease control rating, AS” value ([5]; 200 ppm) was 0 (0), the “Disease control rating, SBC” value ([6]; 200 ppm) was 0 (0) and the inhibition at 25 ppm [1] was 90 to 99%. For the same molecule, the “Disease control rating, PB” value ([7]; 200 ppm) was 0 (0), the “Disease control rating, RB” value ([8]; 200 ppm) was 0 (0) and the “Disease control rating, GDM” value ([9]; 200 ppm) was 0 (0). For the same molecule, the inhibition at 25 ppm [3] was 0% and the inhibition at 25 ppm [4] was 0%.

In the case of `N#Cc1cc(C(F)(F)F)[nH]c1-c1cccs1` [Compound 2, 2-(2-Thienyl)-5-(trifluoromethyl)pyrrole-3-carbonitrile], the “Disease control rating, AS” value ([5]; 400 ppm) is reported as 9 (100), the “Disease control rating, SBC” value ([6]; 400 ppm) is reported as 0 (0) and the inhibition at 25 ppm [1] is reported as 100%. For the same molecule, the “Disease control rating, RB” value ([8]; 400 ppm) was 5 (60-74), the “Disease control rating, GDM” value ([9]; 400 ppm) was 9 (100) and the “Disease control rating, WPM” value ([10]; 400 ppm) was 9 (100). The “Disease control rating, WLR” value [11] was 9 (100).

`N#Cc1cc(C(F)(F)F)[nH]c1-c1cc(Br)cs1` [Compound 20, 2-(4-Bromo-2-thienyl)-5-(trifluoromethyl)pyrrole-3-carbonitrile] was tested, and the inhibition at 25 ppm [1] was 0%, the inhibition at 25 ppm [2] was 0% and the inhibition at 25 ppm [3] was 0%. For the same molecule, the inhibition at 25 ppm [4] was 0%.

Molecule `N#Cc1cc(C(F)(F)F)[nH]c1-c1ccc(Br)s1` [Compound 15, 2-(5-Bromo-2-thienyl)-5-(trifluoromethyl)pyrrole-3-carbonitrile] has an inhibition at 25 ppm [1] of 0%, an inhibition at 25 ppm [2] of 60 to 89% and an inhibition at 25 ppm [3] of 0%. The inhibition at 25 ppm [4] was 0%.

With `N#Cc1cc(C(F)(F)F)[nH]c1-c1ccc(Br)o1` [Compound 14, 2-(5-Bromo-2-furyl)-5-(trifluoromethyl)pyrrole-3-carbonitrile] the “Disease control rating, AS” value ([5]; 200 ppm) was 0 (0), the “Disease control rating, SBC” value ([6]; 200 ppm) was 0 (0) and the “Disease control rating, PB” value ([7]; 200 ppm) was 0 (0). The “Disease control rating, RB” value ([8]; 200 ppm) was 0 (0), the inhibition at 25 ppm [2] was 30 to 59% and the “Disease control rating, GDM” value ([9]; 200 ppm) was 6 (75-89). For the same molecule, the inhibition at 25 ppm [3] was 0%, the “Disease control rating, WPM” value ([10]; 200 ppm) was 6 (75-89) and the inhibition at 25 ppm [4] was 0%.

With `N#Cc1c(-c2ccc(Cl)s2)[nH]c(C(F)(F)F)c1Br` [Compound 17, 4-Bromo-2-(5-chloro-2-thienyl)-5-(trifluoromethyl)pyrrole-3-carbonitrile] the inhibition at 25 ppm [1] was 30 to 59%, the inhibition at 25 ppm [2] was 60 to 89% and the inhibition at 25 ppm [3] was 0%. The inhibition at 25 ppm [4] was 0%.

In the case of `O=[N+]([O-])c1c(-c2ccc(Cl)cc2)[nH]c(C(F)(F)F)c1-c1csc(Br)c1Br` [Compound 10, 2-(p-Chlorophenyl)-4-(4,5-dibromo-3-thienyl)-3-nitro-5-(trifluoromethyl)pyrrole], the “Disease control rating, AS” value ([5]; 400 ppm) is reported as 0 (0), the “Disease control rating, SBC” value ([6]; 400 ppm) is reported as 0 (0) and the inhibition at 25 ppm [1] is reported as 0%. The “Disease control rating, PB” value ([7]; 400 ppm) was 0 (0), the “Disease control rating, RB” value ([8]; 400 ppm) was 7 (90-95) and the “Disease control rating, GDM” value ([9]; 400 ppm) was 7 (90-95). The inhibition at 25 ppm [3] was 0% and the “Disease control rating, WPM” value ([10]; 400 ppm) was 4 (45-59).
